Source: patent US10266535B2, “Inhibitor of FLT3 kinase and use thereof” (HEFEI INSTITUTES OF PHYSICAL SCIENCE, CHINESE ACADEMY OF …, priority 2015, dated 2019)
Where a name gives a salt, the structure may show the parent alone. Read-outs that look alike come from different tables or passages of the source.

Experiments:
[1] = system: TEL-FLT3-BaF3 (stably expressing FLT3 kinase); experiment: Cell proliferation, Cell Titer-Glo, TEL-FLT3-BaF3; assay type: cell-based; settings: Mus musculus
Experimental: (§1) The above cell lines were constructed by our laboratory.
(§2) The number of viable cells was determined by quantification of ATP in living cells using the Cell Titer-Glo® (Promega, USA) chemiluminescence cell viability assay kit.

[2] = system: TEL-BaF3-BMX (stably expressing BMX kinase); experiment: Cell proliferation, Cell Titer-Glo, TEL-BaF3-BMX; assay type: cell-based; settings: Mus musculus; incubated for 72 hours
Summary of the method: (§3)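 Viable cells quantified by CellTiter-Glo ATP luminescence; BaF3 lines generated in-house.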

[3] = system: BaF3-FLT3-ITD-D835Y (stably expressing FLT3/ITD D835Y mutant activated kinase); experiment: Cell proliferation, Cell Titer-Glo, BaF3-FLT3-ITD-D835Y; assay type: cell-based; settings: Mus musculus
Experimental: as §1, §2

[4] = system: MOLM-13 (expressing FLT3/ITD mutant gene and wild-type FLT3 gene); experiment: Cell proliferation, Cell Titer-Glo, MOLM-13; assay type: cell-based; settings: Homo sapiens
Summary of the method: (§4)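 Read-out: luminescence from ATP in live cells (CellTiter-Glo), taken as viable cell number. Cell lines were built in-house.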

[5] = system: MOLM-14 (expressing FLT3/ITD mutant gene and wild-type FLT3 gene); experiment: Cell proliferation, Cell Titer-Glo, MOLM-14; assay type: cell-based; settings: Homo sapiens
Summary of the method: as §4

[6] = system: BaF3-FLT3-ITD-F691L (stably expressing FLT3/ITD F691L mutant activated kinase); experiment: Cell proliferation, Cell Titer-Glo, BaF3-FLT3-ITD-F691L; assay type: cell-based; settings: Mus musculus
Experimental: as §1, §2

[7] = system: U937 (expressing wild-type FLT3 gene); experiment: Cell proliferation, Cell Titer-Glo, U937; assay type: cell-based, human; settings: Homo sapiens, U-937, 72 h
Summary of the method: as §4

[8] = system: TEL-BaF3-BLK (stably expressing BLK kinase); experiment: Cell proliferation, Cell Titer-Glo, TEL-BaF3-BLK; assay type: cell-based; settings: Mus musculus; incubated for 72 hours
Summary of the method: as §3

[9] = system: TPR-MET-BaF3 (stably expressing MET kinase); experiment: Cell proliferation, Cell Titer-Glo, TPR-MET-BaF3; assay type: cell-based; settings: Mus musculus; incubated for 72 hours
Summary of the method: as §3

[10] = system: TEL-BaF3-EGFR (stably expressing EGFR kinase); experiment: Cell proliferation, Cell Titer-Glo, TEL-BaF3-EGFR; assay type: cell-based; settings: Mus musculus; incubated for 72 hours
Experimental: as §1, §2

[11] = system: MV4-11 (expressing FLT3/ITD mutant gene); experiment: Cell proliferation, Cell Titer-Glo, MV4-11; assay type: cell-based; settings: Homo sapiens
Summary of the method: as §4

[12] = system: TEL-cKIT-BaF3 (stably expressing cKIT kinase); experiment: Cell proliferation, Cell Titer-Glo, TEL-cKIT-BaF3; assay type: cell-based; settings: Mus musculus; incubated for 72 hours
Summary of the method: as §3

BTK protein kinase = BTK protein kinase (Homo sapiens (Human), UniProt Q06187); experiment: In vitro inhibition activity (enzymatic activity), ADP-Glo, BTK; assay type: biochemical; settings: ATP 10 μM
[13] = system: TEL-BaF3-FLT3/ITD (stably expressing FLT3/ITD mutant activated kinase); experiment: Cell proliferation, Cell Titer-Glo, TEL-BaF3-FLT3/ITD; assay type: cell-based, mouse; settings: Mus musculus, 72 h
Summary of the method: as §3

pro-B cell BaF3 = experiment: Cell proliferation, Cell Titer-Glo, BaF3; assay type: cell-based; settings: Mus musculus, incubated for 72 hours
Summary of the method: as §3

[14] = system: TEL-BaF3-FLT3-D835Y (stably expressing FLT3 D835Y mutant activated kinase); experiment: Cell proliferation, Cell Titer-Glo, TEL-BaF3-FLT3-D835Y; assay type: cell-based; settings: Mus musculus
Summary of the method: as §3

[15] = system: Signaling pathways of FLT3 in MV4-11 and MOLM-14 cell lines; experiment: Effects on upstream and downstream signaling pathways of FLT3 in cells; assay type: cell-based, human; settings: for efficacy compared with Control Compound AC220: AC220 at 0.1 μM; for C-Myc (degradation; for AC220 phosphorylation) / phosphorylation of STAT5 / phosphorylation of protein kinase FLT3: treated for 4 hours
MOLM-14 cells = experiment: Nude mouse subcutaneous tumor model with MOLM-14 cells; assay type: in vivo; settings: oral gavage
Experimental: More than 30 mice (5-week-old) (Balb/c-nu female mice, purchased from Shanghai Snake Experimental Animal Co., Ltd.) were inoculated subcutaneously with MOLM-14 cells in 1×10^7 cells/mouse, the changes in body weight and tumor volume were recorded daily (tumor volume=Tumor length×tumor width^2/2).

MV4-11 cell lines = experiment: Cell apoptosis, Western Blot of PARP and Caspase 3 cleavage, MV4-11; assay type: cell-based, human; settings: MV 4-11, 0.03 μM, after 24 hours
Source text: (§5) Western Blot was used to detect the effects of different concentrations of drugs on protein cleavage of DNA repair enzyme, poly ADP-ribose polymerase PARP and cysteinyl aspartate specific proteinase Caspase 3 at different time intervals (FIG. 3).

MOLM-13 cell lines = experiment: Cell apoptosis, Western Blot of PARP and Caspase 3 cleavage, MOLM-13; assay type: cell-based, human; settings: MOLM-13, 0.1 μM, after 24 hours
Source text: as §5

[16] = system: MV4-11 cell lines carrying FLT3/ITD mutant gene; experiment: Cell cycle distribution by flow cytometry; assay type: cell-based, human; settings: MV4-11, 0.1 μM, 24 hours
[17] = system: TEL-JAK1-BaF3 (stably expressing JAK1 kinase); experiment: Cell proliferation, Cell Titer-Glo, TEL-JAK1-BaF3; assay type: cell-based; settings: Mus musculus; incubated for 72 hours
Summary of the method: as §3

[18] = incubated for 72 hours, read-out: TEL-FLT3-BaF3 IC50
[19] = incubated for 72 hours, read-out: BaF3-FLT3-ITD-D835Y IC50
[20] = MOLM-13, incubated for 72 hours, read-out: MOLM-13 IC50
[21] = MOLM-14, incubated for 72 hours, read-out: MOLM-14 IC50
[22] = incubated for 72 hours, read-out: BaF3-FLT3-ITD-F691L IC50
[23] = incubated for 72 hours, read-out: U937 IC50
[24] = MV4-11, incubated for 72 hours, read-out: MV4-11 IC50
[25] = 72 h, read-out: TEL-FLT3-BaF3 IC50 [μM]
[26] = incubated for 72 hours, read-out: TEL-BaF3-FLT3/ITD IC50
[27] = 72 h, read-out: BaF3-FLT3-ITD-D835Y IC50 [μM]
[28] = MOLM-14, 72 h, read-out: MOLM-14 IC50 [μM]
[29] = 72 h, read-out: TEL-BaF3-FLT3-D835Y IC50 [μM]
[30] = 72 h, read-out: BaF3-FLT3-ITD-F691L IC50 [μM]
[31] = read-out: U937 IC50 [μM], incubated for 72 hours
[32] = MV4-11, 72 h, read-out: MV4-11 IC50 [μM]
[33] = incubated for 72 hours, read-out: TEL-BaF3-FLT3-D835Y IC50

Chain of BTK protein kinase (Q06187 whole entry): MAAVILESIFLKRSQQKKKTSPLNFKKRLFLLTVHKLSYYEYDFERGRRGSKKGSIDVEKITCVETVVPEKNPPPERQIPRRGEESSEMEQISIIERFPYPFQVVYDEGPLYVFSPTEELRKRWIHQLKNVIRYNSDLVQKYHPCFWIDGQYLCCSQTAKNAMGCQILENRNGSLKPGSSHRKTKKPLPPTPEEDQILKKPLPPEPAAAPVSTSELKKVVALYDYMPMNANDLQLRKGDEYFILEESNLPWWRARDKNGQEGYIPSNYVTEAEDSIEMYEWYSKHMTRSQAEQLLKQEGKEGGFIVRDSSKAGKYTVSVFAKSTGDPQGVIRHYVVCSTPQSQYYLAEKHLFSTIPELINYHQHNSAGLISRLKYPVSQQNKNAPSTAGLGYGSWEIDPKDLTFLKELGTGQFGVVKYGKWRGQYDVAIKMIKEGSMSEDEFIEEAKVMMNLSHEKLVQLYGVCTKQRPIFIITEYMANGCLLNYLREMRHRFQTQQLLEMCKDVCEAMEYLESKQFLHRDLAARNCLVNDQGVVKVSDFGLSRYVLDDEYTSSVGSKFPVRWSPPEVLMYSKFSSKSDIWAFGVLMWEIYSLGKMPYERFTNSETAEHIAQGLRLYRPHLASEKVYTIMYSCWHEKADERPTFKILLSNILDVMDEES

SMILES | IC50 [1, 18] [µM] | IC50 [2] [nM] | IC50 [3, 19] [µM] | IC50 [4, 20] [µM] | IC50 [5, 21] [µM] | IC50 [6, 22] [µM] | IC50 [7, 23] [µM] | IC50 [8] [nM] | IC50 [9] [nM] | IC50 [10] [nM] | IC50 [11, 24] [µM] | IC50 [12] [nM] | IC50 (BTK protein kinase) [nM] | IC50 [1, 25] [µM] | IC50 [13, 26] [µM] | IC50 [3, 27] [µM] | IC50 [5, 28] [µM] | IC50 (pro-B cell BaF3) [nM] | IC50 [14, 29] [µM] | IC50 [6, 30] [µM] | other results
CC(C)[C@@H](N)C(=O)NC1CCC(n2nc(-c3ccc(Oc4ccccc4)cc3)c3c(N)ncnc32)CC1 (stereo partly drawn) [Compound 86, (R)-2-amino-N-(4-(4-amino-(4-phenoxyphenyl)-1H-pyrazolo[3,4-d]pyrimidin-1-yl)cyclohexyl)-3-methylbutanamide hydrochloride] | 0.004 | < 0.3 | 0.006 | 0.001 | 0.005 | 0.15 | 1.4 | 1 | 3300 | 1300 | 0.02 | 270 | – | – | – | – | – | – | – | – | –
CC(C)C[C@@H](N)C(=O)NC1CCC(n2nc(-c3ccc(Oc4ccccc4)cc3)c3c(N)ncnc32)CC1.Cl (stereo partly drawn) [Compound 77, (R)-2-amino-N-(4-(4-amino-3-(4-phenoxyphenyl)-1H-pyrazolo[3,4-d]pyrimidin-1-yl)cyclohexyl)-4-methylpentanamide hydrochloride] | – | 52 | – | – | – | – | – | 2.6 | – | – | – | – | 128 | 0.0081 | < 0.0003 | 0.073 | 0.0084 | 2200 | 0.021 | 0.067 | IC50 ([4]; MOLM-13, 72 h, read-out: MOLM-13 IC50 [μM]): 0.0027 µM; IC50 [7, 31]: 3.4 µM; efficacy compared with Control Compound AC220 [15]: better efficacy; C-Myc (degradation; for AC220 phosphorylation) [15]: significant effects on the degradation; phosphorylation of STAT5 [15]: very strong inhibitory effects; phosphorylation of protein kinase FLT3 [15]: strongly inhibited; tumor volume growth of the mice (MOLM-14 cells; 25 mg/kg/day): significantly slowed down; growth of the tumors of the mice (MOLM-14 cells; 50.0 mg/kg/day): almost no growth; tumor growth of the mice (MOLM-14 cells; 12.5-50 mg/kg, 2 to 3 weeks): significantly inhibited; IC50 [11, 32]: 0.0016 µM
CC(C)C[C@@H](N)C(=O)N[C@H]1CC[C@@H](n2nc(-c3ccc(Oc4ccccc4)cc3)c3c(N)ncnc32)CC1.Cl (stereo in doubt) [Compound 84, (R)-2-amino-N-(4-(4-amino-3-(4-phenoxyphenyl)-1H-pyrazolo[3,4-d]pyrimidin-1-yl)cis-1,4-cyclohexyl)-4-methylpentanamide hydrochloride] | – | 63 | – | – | – | – | – | 3 | 2900 | – | – | 6100 | – | 0.013 | – | 0.28 | 0.002 | 750 | 0.002 | 0.43 | cleavage of Caspase 3 (MV4-11 cell lines): cleavage; cleavage of poly ADP-ribose polymerase PARP (MV4-11 cell lines): relatively significant cleavage; IC50 ([13]; read-out: TEL-BaF3-FLT3/ITD IC50 [μM], incubated for 72 hours): < 0.0003 µM; cleavage of Caspase 3 (MOLM-13 cell lines): very significant cleavage; cleavage of poly ADP-ribose polymerase PARP (MOLM-13 cell lines): very significant cleavage; IC50 [7, 31]: 3.3 µM; efficacy compared with Control Compound AC220 [15]: better efficacy; C-Myc (degradation; for AC220 phosphorylation) [15]: significant effects on the degradation; phosphorylation of STAT5 [15]: very strong inhibitory effects; phosphorylation of protein kinase FLT3 [15]: strongly inhibited; IC50 [11, 32]: 0.01 µM; number of cells captured in G0-G1 phase [16]: 89.92%
CN(C)CC(=O)NC1CCC(n2nc(-c3ccc(Oc4ccccc4)cc3)c3c(N)ncnc32)CC1 (centres unmarked) [Compound 76, N-(4-(4-amino-3-(4-phenoxyphenyl)-1H-pyrazolo[3,4-d]pyrimidin-1-yl)cyclohexyl)-2-(dimethylamino)acetamide] | 0.042 | 120 | 0.13 | – | 0.036 | 0.18 | > 10 | 30 | – | – | 0.027 | 430 | 388 | – | – | – | – | 4200 | – | – | IC50 ([13]; read-out: TEL-BaF3-FLT3/ITD IC50 [μM]): 0.0067 µM; IC50 [14, 33]: 0.023 µM
Nc1ncnc2c1c(-c1ccc(Oc3ccccc3)cc1)nn2[C@@H]1CCCN(C(=O)N2CCNCC2)C1 [Compound 14, (R)-(3-(4-amino-(4-phenoxyphenyl)-1H-pyrazolo[3,4-d]pyrimidin-1-yl)piperidin-1-yl)(piperazin-1-yl)methanone] | – | 430 | 0.25 | 0.06 | 0.12 | 0.37 | 4.14 | 1000 | 3000 | 1600 | 0.049 | 4900 | 63 | – | 0.088 | – | – | 9800 | – | – | IC50 [14, 33]: 0.24 µM; IC50 [17]: 7700 nM
